Data: PubChem BioAssay (NCI)
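Compound exposure: 48 hours, 5 concentrations, 96-well plates. The concentration for full growth arrest is given as TGI.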

Assays:
Assay in all cases: NCI anticancer screen, dose series, 48 h
COLO 205 colon = test system: COLO 205 colon
CAKI-1 renal = test system: CAKI-1 renal
SN12C renal = test system: SN12C renal
LOX IMVI melanoma = test system: LOX IMVI melanoma
HCT-116 colon = test system: HCT-116 colon
DU-145 prostate = test system: DU-145 prostate
MCF7 breast = test system: MCF7 breast
SK-MEL-2 melanoma = test system: SK-MEL-2 melanoma
UACC-62 melanoma = test system: UACC-62 melanoma
SK-OV-3 ovarian = test system: SK-OV-3 ovarian

## CN(C)S(=O)(=O)c1ccc2[nH]c(O)c(C3=Nc4ccccc4C3=O)c2c1
COLO 205 colon
  TGI: > 100 µM
CAKI-1 renal
  TGI: > 100 µM
SN12C renal
  TGI: > 100 µM
LOX IMVI melanoma
  TGI: > 100 µM
HCT-116 colon
  TGI: 70.1 µM
DU-145 prostate
  TGI: 94 µM
MCF7 breast
  TGI: > 100 µM
SK-MEL-2 melanoma
  TGI: 44.7 µM
UACC-62 melanoma
  TGI: 34.9 µM
SK-OV-3 ovarian
  TGI: 28.5 µM

## Cc1c(C#N)c2nnn(-c3cccc(Cl)c3)c(=O)n2c1-c1ccccc1
COLO 205 colon
  TGI: 2.35 µM
CAKI-1 renal
  TGI: > 100 µM
SN12C renal
  TGI: 62 µM
LOX IMVI melanoma
  TGI: > 100 µM
HCT-116 colon
  TGI: 38.2 µM
DU-145 prostate
  TGI: 40.4 µM
MCF7 breast
  TGI: 35.4 µM
SK-MEL-2 melanoma
  TGI: 8.95 µM
UACC-62 melanoma
  TGI: 36 µM
SK-OV-3 ovarian
  TGI: > 100 µM

## Nc1nc(Sc2ccc([N+](=O)[O-])c3nonc23)c2[nH]cnc2n1
COLO 205 colon
  TGI: 3.11 µM
CAKI-1 renal
  TGI: 5.74 µM
SN12C renal
  TGI: 27.2 µM
LOX IMVI melanoma
  TGI: 11.7 µM
HCT-116 colon
  TGI: 3.89 µM
DU-145 prostate
  TGI: 16.2 µM
MCF7 breast
  TGI: 12 µM
SK-MEL-2 melanoma
  TGI: 6.32 µM
UACC-62 melanoma
  TGI: 11.2 µM
SK-OV-3 ovarian
  TGI: 9.95 µM

## COc1cc(/C=C(\C)[N+](=O)[O-])cc(OC)c1
COLO 205 colon
  TGI: 20.1 µM
CAKI-1 renal
  TGI: 27.8 µM
SN12C renal
  TGI: 31 µM
LOX IMVI melanoma
  TGI: 11.9 µM
HCT-116 colon
  TGI: 31.2 µM
DU-145 prostate
  TGI: 44.6 µM
MCF7 breast
  TGI: 21.1 µM
SK-MEL-2 melanoma
  TGI: 34.9 µM
UACC-62 melanoma
  TGI: 28.7 µM
SK-OV-3 ovarian
  TGI: > 100 µM

## CCOC(=O)N1c2ccccc2C(C)=CC(C)C1C (stereo not given)
COLO 205 colon
  TGI: > 100 µM
CAKI-1 renal
  TGI: 74.3 µM
SN12C renal
  TGI: > 100 µM
LOX IMVI melanoma
  TGI: 63.7 µM
HCT-116 colon
  TGI: 40.1 µM
DU-145 prostate
  TGI: > 100 µM
MCF7 breast
  TGI: > 100 µM
SK-MEL-2 melanoma
  TGI: > 100 µM
UACC-62 melanoma
  TGI: > 100 µM
SK-OV-3 ovarian
  TGI: > 100 µM

## Cc1sc(/N=C/C2=C(O)CC(C)(C)CC2=O)nc1-c1ccccc1
COLO 205 colon
  TGI: > 100 µM
CAKI-1 renal
  TGI: > 100 µM
SN12C renal
  TGI: > 100 µM
LOX IMVI melanoma
  TGI: > 100 µM
HCT-116 colon
  TGI: > 100 µM
DU-145 prostate
  TGI: > 100 µM
MCF7 breast
  TGI: > 100 µM
SK-MEL-2 melanoma
  TGI: > 100 µM
UACC-62 melanoma
  TGI: > 100 µM
SK-OV-3 ovarian
  TGI: > 100 µM

## Clc1ccc(-c2cn3c(nc4ccccc43)c(-c3ccccc3)n2)cc1
COLO 205 colon
  TGI: > 100 µM
CAKI-1 renal
  TGI: 32.1 µM
SN12C renal
  TGI: > 100 µM
LOX IMVI melanoma
  TGI: > 100 µM
HCT-116 colon
  TGI: > 100 µM
DU-145 prostate
  TGI: > 100 µM
MCF7 breast
  TGI: > 100 µM
SK-MEL-2 melanoma
  TGI: 38.8 µM
UACC-62 melanoma
  TGI: 26.7 µM
SK-OV-3 ovarian
  TGI: 26.5 µM

## COC(=O)/C=C(C)/C=C\COC1CCCCO1 (stereo not given)
COLO 205 colon
  TGI: > 100 µM
CAKI-1 renal
  TGI: > 100 µM
SN12C renal
  TGI: > 100 µM
LOX IMVI melanoma
  TGI: > 100 µM
HCT-116 colon
  TGI: > 100 µM
DU-145 prostate
  TGI: > 100 µM
MCF7 breast
  TGI: > 100 µM
SK-MEL-2 melanoma
  TGI: > 100 µM
UACC-62 melanoma
  TGI: > 100 µM
SK-OV-3 ovarian
  TGI: > 100 µM

## O=C1NC(N2CCCC(CO)C2)=N/C1=C\c1cccs1 (stereo not given)
COLO 205 colon
  TGI: > 100 µM
CAKI-1 renal
  TGI: > 100 µM
SN12C renal
  TGI: > 100 µM
LOX IMVI melanoma
  TGI: > 100 µM
HCT-116 colon
  TGI: > 100 µM
DU-145 prostate
  TGI: > 100 µM
MCF7 breast
  TGI: > 100 µM
SK-MEL-2 melanoma
  TGI: > 100 µM
UACC-62 melanoma
  TGI: > 100 µM
SK-OV-3 ovarian
  TGI: > 100 µM

## CCOC(=O)[C@@]12C[C@](/C=C/OC)(O[Si](C)(C)C)[C@@]13c1cc(OC)c(OC)cc1CCN3C(=O)C2=O
COLO 205 colon
  TGI: > 100 µM
CAKI-1 renal
  TGI: > 100 µM
SN12C renal
  TGI: > 100 µM
LOX IMVI melanoma
  TGI: > 100 µM
HCT-116 colon
  TGI: > 100 µM
DU-145 prostate
  TGI: > 100 µM
MCF7 breast
  TGI: > 100 µM
SK-MEL-2 melanoma
  TGI: > 100 µM
UACC-62 melanoma
  TGI: > 100 µM
SK-OV-3 ovarian
  TGI: > 100 µM

## O=C(/C=C/c1ccc(-c2ccccc2)cc1)NCc1ccc(C(=O)NCCc2ccccc2)cc1
COLO 205 colon
  TGI: > 100 µM
CAKI-1 renal
  TGI: > 100 µM
SN12C renal
  TGI: > 100 µM
LOX IMVI melanoma
  TGI: > 100 µM
HCT-116 colon
  TGI: > 100 µM
DU-145 prostate
  TGI: > 100 µM
MCF7 breast
  TGI: > 100 µM
SK-MEL-2 melanoma
  TGI: > 100 µM
UACC-62 melanoma
  TGI: > 100 µM
SK-OV-3 ovarian
  TGI: > 100 µM

## O=C1Cc2cc3ccccc3nc2-c2ccccc2N1
COLO 205 colon
  TGI: > 100 µM
CAKI-1 renal
  TGI: > 100 µM
SN12C renal
  TGI: > 100 µM
LOX IMVI melanoma
  TGI: > 100 µM
HCT-116 colon
  TGI: 62.2 µM
DU-145 prostate
  TGI: > 100 µM
MCF7 breast
  TGI: > 100 µM
SK-MEL-2 melanoma
  TGI: > 100 µM
UACC-62 melanoma
  TGI: > 100 µM
SK-OV-3 ovarian
  TGI: > 100 µM

## NC(CCC(=O)c1ccccn1)C(=O)O (stereo not given)
COLO 205 colon
  TGI: > 100 µM
CAKI-1 renal
  TGI: > 100 µM
SN12C renal
  TGI: > 100 µM
LOX IMVI melanoma
  TGI: > 100 µM
HCT-116 colon
  TGI: > 100 µM
DU-145 prostate
  TGI: > 100 µM
MCF7 breast
  TGI: > 100 µM
SK-MEL-2 melanoma
  TGI: > 100 µM
UACC-62 melanoma
  TGI: > 100 µM
SK-OV-3 ovarian
  TGI: > 100 µM

## Cc1nc2ccc(NCCN(C)C)c3c(=O)c4ccccc4n1c23
COLO 205 colon
  TGI: 11.8 µM
CAKI-1 renal
  TGI: 13.8 µM
SN12C renal
  TGI: 40.1 µM
LOX IMVI melanoma
  TGI: 2.96 µM
HCT-116 colon
  TGI: 13.8 µM
DU-145 prostate
  TGI: 6.87 µM
MCF7 breast
  TGI: 23.3 µM
SK-MEL-2 melanoma
  TGI: 18.8 µM
UACC-62 melanoma
  TGI: 20.2 µM
SK-OV-3 ovarian
  TGI: 36.7 µM

## Cc1cccc2c(=O)c3c(O)cc(O)cc3n(C)c12
COLO 205 colon
  TGI: > 100 µM
CAKI-1 renal
  TGI: > 100 µM
SN12C renal
  TGI: > 100 µM
LOX IMVI melanoma
  TGI: > 100 µM
HCT-116 colon
  TGI: > 100 µM
DU-145 prostate
  TGI: > 100 µM
MCF7 breast
  TGI: > 100 µM
SK-MEL-2 melanoma
  TGI: > 100 µM
UACC-62 melanoma
  TGI: > 100 µM
SK-OV-3 ovarian
  TGI: > 100 µM

## CC(=O)O[C@H]1[C@@H](N2CCOCC2)C[C@H]2[C@@H]3CC=C4C[C@@H](N5CCCC5)CC[C@]4(C)[C@H]3CC[C@@]21C
COLO 205 colon
  TGI: > 100 µM
CAKI-1 renal
  TGI: > 100 µM
SN12C renal
  TGI: > 100 µM
LOX IMVI melanoma
  TGI: > 100 µM
HCT-116 colon
  TGI: > 100 µM
DU-145 prostate
  TGI: > 100 µM
MCF7 breast
  TGI: > 100 µM
SK-MEL-2 melanoma
  TGI: > 100 µM
UACC-62 melanoma
  TGI: > 100 µM
SK-OV-3 ovarian
  TGI: > 100 µM

## CC1(C)N=C(C(N)=O)c2[nH]cnc2N1
COLO 205 colon
  TGI: > 100 µM
CAKI-1 renal
  TGI: > 100 µM
SN12C renal
  TGI: > 100 µM
LOX IMVI melanoma
  TGI: > 100 µM
HCT-116 colon
  TGI: > 100 µM
DU-145 prostate
  TGI: > 100 µM
MCF7 breast
  TGI: > 100 µM
SK-MEL-2 melanoma
  TGI: > 100 µM
UACC-62 melanoma
  TGI: > 100 µM
SK-OV-3 ovarian
  TGI: > 100 µM

## CC(=O)c1csc2c1C(=O)c1ccccc1C2=O
COLO 205 colon
  TGI: 3.62 µM
CAKI-1 renal
  TGI: 18.2 µM
SN12C renal
  TGI: 5.86 µM
LOX IMVI melanoma
  TGI: 31.3 µM
HCT-116 colon
  TGI: 7.85 µM
DU-145 prostate
  TGI: 3.21 µM
MCF7 breast
  TGI: 5.22 µM
SK-MEL-2 melanoma
  TGI: 10.6 µM
UACC-62 melanoma
  TGI: 3.73 µM
SK-OV-3 ovarian
  TGI: > 100 µM

## S=C(NCc1ccccn1)N/N=C/c1ccccn1
COLO 205 colon
  TGI: 0.379 µM
CAKI-1 renal
  TGI: 4.33 µM
SN12C renal
  TGI: 9.25 µM
LOX IMVI melanoma
  TGI: 33.3 µM
HCT-116 colon
  TGI: < 0.01 µM
DU-145 prostate
  TGI: > 100 µM
MCF7 breast
  TGI: > 100 µM
SK-MEL-2 melanoma
  TGI: 0.876 µM
UACC-62 melanoma
  TGI: 4.12 µM
SK-OV-3 ovarian
  TGI: 97.9 µM

## O=c1cc(NNc2cccc3ccccc23)[nH]c(=O)[nH]1
COLO 205 colon
  TGI: 31.3 µM
CAKI-1 renal
  TGI: 28.5 µM
SN12C renal
  TGI: 29.9 µM
LOX IMVI melanoma
  TGI: 26.7 µM
HCT-116 colon
  TGI: 31.2 µM
DU-145 prostate
  TGI: 28.6 µM
MCF7 breast
  TGI: 4.74 µM
SK-MEL-2 melanoma
  TGI: 28.4 µM
UACC-62 melanoma
  TGI: 31.8 µM
SK-OV-3 ovarian
  TGI: 88.6 µM

## CCCOC(=O)c1cc(O)c(O)c(O)c1
COLO 205 colon
  TGI: > 100 µM
CAKI-1 renal
  TGI: > 100 µM
SN12C renal
  TGI: > 100 µM
LOX IMVI melanoma
  TGI: 30.8 µM
HCT-116 colon
  TGI: 45.3 µM
DU-145 prostate
  TGI: > 100 µM
MCF7 breast
  TGI: > 100 µM
SK-MEL-2 melanoma
  TGI: > 100 µM
UACC-62 melanoma
  TGI: > 100 µM
SK-OV-3 ovarian
  TGI: > 100 µM

## CC(=O)N[C@@H](Cc1ccc(O)cn1)C(=O)NCc1ccc(Cl)cc1
COLO 205 colon
  TGI: > 100 µM
CAKI-1 renal
  TGI: > 100 µM
SN12C renal
  TGI: > 100 µM
LOX IMVI melanoma
  TGI: > 100 µM
HCT-116 colon
  TGI: > 100 µM
DU-145 prostate
  TGI: > 100 µM
MCF7 breast
  TGI: > 100 µM
SK-MEL-2 melanoma
  TGI: > 100 µM
UACC-62 melanoma
  TGI: > 100 µM
SK-OV-3 ovarian
  TGI: > 100 µM
